Test results taken from patent publication EP0760375A1, “ANTITUMOR INDOLOPYPROLOCARBAZOLE DERIVATIVE” (BANYU PHARMACEUTICAL CO., LTD., priority 1994, dated 1995).
Like-named read-outs stand apart in the source and are kept apart here.

Key:
[1] = system: human gastric cancer MKN-45; test: Effect on human gastric cancer MKN-45 solid tumor transplanted under the skin of mice; format: in vivo; details: Mus musculus, MKN-45, iv, total dose at which tumor growth was inhibited by 75%, injection into the caudal vein, read-out: GID75 (mg/kg total)
Procedure: A MKN-45 solid tumor which had previously been grown by transplantation under the skin of a nude mouse was minced, and 3 mm cubes of the tumor were transplanted under the skin of mice used for this test. Starting from the time when the transplanted tumor grew to 0.3 cm^3, a treatment was carried out by injecting a dose of each test drug into the caudal vein of the mice, once a day, for 5 consecutive days and, after two days' pause, injecting the test drug for 5 days (treatment schedule: 5/w x 2) or four times at intervals of 3 or 4 days (treatment schedule: 2/w x 2). Twenty or thirty-two days after the start of the treatment, the larger diameter (L) and smaller diameter (W) of the tumor were measured, and its volume (V) was determined ( […] [formula] ). The degree of tumor growth inhibition was calculated from this volume, and the total dose at which the tumor growth was inhibited by 75% (GID75, mg/kg) was determined.

[2] = system: human pulmonary cancer cells (PC-13); test: Growth-inhibiting activity (CTX) against cancer cells, Thiazoyl Blue assay; format: cell-based; details: PC-13 cells, 72 hours incubation with test compound, absorbance at 560 nm
Procedure: (§1) 50 µl of a cell culture medium (RPMI-1640 medium containing 10% bovine fetal serum) containing 1 x 10^3 mouse leukemia cells (P388), human gastric cancer cells (MKN-45), human pulmonary cancer cells (PC-13) or human rectal cancer cells (DLD-1) was pipetted into the wells of a 96-well microplate, and incubated at 37°C under 5% CO2 for 24 hours. Then, 50 µl of a test solution containing each test compound was added, and the culture medium was further incubated at 37°C under 5% CO2 for 72 hours. After 10 µl of 0.5% Thiazoyl Blue was added to the culture medium, an enzyme reaction was carried out by incubating the culture medium at 37°C under 5% CO2 for 2 hours. After the reaction was stopped by the addition of 20% sodium dodecyl sulfate (SDS), the culture medium was further incubated at 37°C for 16 hours to dissolve the pigment so formed. Then, the absorbances at 560 nm were measured and compared with that obtained in a control group. The compound of the formula [drawing 7] was used as the control compound.

[3] = system: human rectal cancer cells (DLD-1); test: as above; format: cell-based; details: DLD-1 cells, 72 hours incubation with test compound, absorbance at 560 nm
Procedure: as §1

[4] = system: mouse leukemia cells (P388); test: as above; format: cell-based; details: 72 hours incubation with test compound, absorbance at 560 nm
Procedure: as §1

[5] = system: human gastric cancer cells (MKN-45); test: as above; format: cell-based; details: MKN-45 cells, 72 hours incubation with test compound, absorbance at 560 nm
Procedure: as §1

Structure (SMILES)	ED75 ([1]; treatment schedule 2/w x 2) [mg/kg]	IC50 [2] [µM]	IC50 [3] [µM]	IC50 [4] [µM]	IC50 [5] [µM]	ED75 ([1]; treatment schedule 5/w x 2) [mg/kg]
O=C1c2c(c3c4ccc(O)cc4n([C@@H]4O[C@H](CO)[C@@H](O)[C@H](O)[C@H]4O)c3c3[nH]c4cc(O)ccc4c23)C(=O)N1NC(CO)CO [Compound [I-B]]	3	0.035	0.1	0.002	0.011	–
O=C1c2c(c3c4cccc(O)c4n([C@@H]4O[C@H](CO)[C@@H](O)[C@H](O)[C@H]4O)c3c3[nH]c4c(O)cccc4c23)C(=O)N1NC(CO)CO [Compound [I-A]]	–	0.34	0.67	0.037	0.29	27
O=CNN1C(=O)c2c(c3c4cccc(O)c4n([C@@H]4O[C@H](CO)[C@@H](O)[C@H](O)[C@H]4O)c3c3[nH]c4c(O)cccc4c23)C1=O [Control compound, reference compound]	–	1.4	73	0.12	0.5	170
